Key:
PD-L1 = PD-L1 (Homo sapiens (Human), UniProt Q9NZQ7); experiment: PD-L1 whole blood internalization assay; format: cell-based; settings: 1 ng/ml human interferon γ, PD-L1 expression on CD14+ cells, read-out: Whole Blood (24 HR) IC50
Procedure: Example D. PD-L1 Whole Blood Internalization Assay
To determine PD-L1 internalization in human whole blood, normal human blood (Biological Specialty Corp, Colmar. Pa.) was incubated in the presence or absence of a concentration range of test compounds and 1 ng/ml human interferon γ (R&D Systems Inc. Minn. […] Blood was then stained with PD-L1 (MIH1, eBioscience; or BD Biosciences San Jose, Calif.), CD14 (Life Technologies, Carlsbad, Calif.) for 30 minutes in the dark at room temperature. Whole Blood/red cells were lysed/fixed (lysis buffer BD Biosciences) for 5 minutes at 37° C. in the dark and then centrifuged at 1600 RPM for 5 minutes. Cells were resuspended in Stain Buffer (BD Bioscience, San Jose, Calif.) and transferred into 96 well round bottom plates (Corning). Cells were gated on CD14+(BD Biosciences) and PD-L1 expression determined by mean fluorescence intensity (MFI) (BD LSRFortessa™ X-20). IC50 determination was performed by fitting the curve of compound percent inhibition versus the log of the compound concentration using the GraphPad Prism 7.0 software.

[1] = tested on: PD-L1 aAPC/CHO-K1 cells and Jurkat-PD-1-NFAT effector cells; experiment: Nuclear factor of activated T-cells (NFAT) assay; format: cell-based; settings: Cricetulus griseus; PD-L1 aAPC/CHO-K1 cells with Jurkat-PD-1-NFAT effector cells, 24 hours
Procedure: Example C. Nuclear Factor of Activated T-Cells (NFAT) Assay
PD-L1 aAPC/CHO-Klcells (Promega) were maintained in F-12 medium with addition of 10% FBS, 200 μg/ml Hygromycin B, 250 μg/ml Geneticin (G418). Jurkat-PD-1-NFAT effector cells (Promega) were cultured in RPMI 1640 medium supplemented with 10% FBS, 100 μg/ml Hygromycin B, 500 μg/ml G418. The culture media of PD-L1 aAPC/CHO-K1 cells were first replaced with assay medium (RPMI1640 medium with 1% FBS). The PD-L1 aAPC/CHO-K1 cells were then added in a white 384-well white clear bottom assay plate (CELLCOAT® Tissue Culture Plates, Greiner Bio-One) at 8000 per well in 10 μL assay medium. Test compounds were prepared by serial dilution in DMSO and 0.8 μL test compounds in DMSO were first transferred to the 384 REMP plate well (Thermofisher) by PlateMate Plus (Thermofisher) followed with addition of 50 μL plating medium. 5 μL compounds in the assay medium were transferred to the cells with 0.4% DMSO in the final assay at 2 μM. After removing the culture media, 10,000 Jurkat-PD-1-NFAT effector cells in 5 μL assay medium was dispensed into each well. The assay plate was incubated at 37° C., 5% CO2 for 24 hours. After the assay plate was equilibrated to room temp for 15 minutes, 20 µL/well of Bio-Glo™ reagent (Promega) were added. After 8 minutes incubation at room temperature, luminescence was read at with Pherastar microplate reader (BMG Labtech). The fold of induction (FOI) was calculated based on the ratio of luminescence normalized to the DMSO wells within each assay plate. The maximum percentage of induction was reported based on the ratio between the highest FOI of each compound and the maximum FOI of control compound within each assay plate. Wells with DMSO were served as the negative controls and wells containing control compound with the highest FOI were used as positive controls. EC50 determination was performed by fitting the curve of percent control activity versus the log of the compound concentration using the GraphPad Prism 6.0 software.

[2] = tested on: U2OS/PD-L1 cells and Jurkat-PD-1-SHP cells; experiment: Src homology region 2 domain-containing phosphatase (SHP) assay; format: cell-based; settings: Homo sapiens; U2OS/PD-L1 cells with Jurkat-PD-1-SHP cells, 2 hours
Procedure: Example B. Src Homology Region 2 Domain-Containing Phosphatase (SHP) Assay
U2OS/PD-L1 cells (DiscoveRx Corporation) were maintained in McCoy's 5A medium with addition of 10% FBS, 0.25 μg/ml Puromycin. After removing the culture media, the cell medium was replaced with assay medium (RPMI1640 medium with 1% FBS). The U2OS/PD-L1 cells were then added in 384-well black clear bottom assay plate (CELLCOAT® Tissue Culture Plates, Greiner Bio-One) at 5000 cells per well in 20 μL assay medium. Test compounds were prepared by serial dilution in DMSO and 125 nL compound were first transferred to the 384 REMP plate well (Thermofisher) by ECHO liquid handler (Labcyte) followed with addition of 27.5 μL assay medium. 5 μL/well compounds in the assay medium were transferred to the cell plate with 0.05% DMSO in the final assay at 0.5 μM. Jurkat-PD-1-SHP cells (DiscoveRx Corporation) were cultured in RPMI1640 medium supplemented with 10% FBS, 250 μg/ml Hygromycin B, 500 μg/ml G418. After the replacement of culture media with assay medium, 5,000 Jurkat-PD-1-SHP cells in 20 μL were dispensed into each well. The assay plate was incubated at 37° C., 5% CO2 for 2 hours before 2.5 μL PathHunter reagent 1 (DiscoveRx Corporation) were added to each well. The assay plate was shaken for 1 min at 350 rpm in the dark followed with addition of 10 μL PathHunter reagent 2 (DiscoveRx Corporation). Chemiluminescent signal was recorded with TopCount reader (Perkin Elmer) after incubation at room temperature for 1 hour. Wells with DMSO were served as the positive controls and wells containing no cells were used as negative controls. IC50 determination was performed by fitting the curve of percentage of control activity versus the log of the compound concentration using the GraphPad Prism 6.0 software.

PD-1/PD-L1 = PD-1/PD-L1 (Homo sapiens (Human), UniProt Q9NZQ7); experiment: Homogeneous Time-Resolved Fluorescence (HTRF) PD-1/PD-L1 binding assay; settings: recombinant human PD-1 and PD-L1, 25° C., pH 7.4
Procedure: Example A. Homogeneous Time-Resolved Fluorescence (HTRF) PD-1/PD-L1 Binding Assay
The assays were conducted in a standard black 384-well polystyrene plate with a final volume of 20 μL. Inhibitors were first serially diluted in DMSO and then added to the plate wells before the addition of other reaction components. The final concentration of DMSO in the assay was 1%. The assays were carried out at 25° C. in the PBS buffer (pH 7.4) with 0.05% Tween-20 and 0.1% BSA. Recombinant human PD-L1 protein (19-238) with a His-tag at the C-terminus was purchased from AcroBiosystems (PD1-H5229). Recombinant human PD-1 protein (25-167) with Fc tag at the C-terminus was also purchased from AcroBiosystems (PD1-H5257). PD-L1 and PD-1 proteins were diluted in the assay buffer and 10 μL was added to the plate well. Plates were centrifuged and proteins were preincubated with inhibitors for 40 minutes. The incubation was followed by the addition of 10 μL of HTRF detection buffer supplemented with Europium cryptate-labeled anti-human IgG (PerkinElmer-AD0212) specific for Fc and anti-His antibody conjugated to SureLight®-Allophycocyanin (APC, PerkinElmer-AD0059H). After centrifugation, the plate was incubated at 25° C. for 60 min. before reading on a PHERAstar FS plate reader (665 nm/620 nm ratio). Final concentrations in the assay were—3 nM PD1,10 nM PD-L1, 1 nM europium anti-human IgG and 20 nM anti-His-Allophycocyanin. IC50 determination was performed by fitting the curve of percent control activity versus the log of the inhibitor concentration using the GraphPad Prism 5.0 software.

Sequence of PD-1/PD-L1 (Q9NZQ7 19-238): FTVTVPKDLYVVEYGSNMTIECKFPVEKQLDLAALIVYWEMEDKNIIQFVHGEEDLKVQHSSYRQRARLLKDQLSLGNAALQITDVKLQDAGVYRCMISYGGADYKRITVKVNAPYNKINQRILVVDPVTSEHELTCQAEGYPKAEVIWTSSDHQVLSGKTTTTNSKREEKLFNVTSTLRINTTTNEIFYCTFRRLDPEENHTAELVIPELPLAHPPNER
Sequence of PD-L1 (Q9NZQ7 19-290): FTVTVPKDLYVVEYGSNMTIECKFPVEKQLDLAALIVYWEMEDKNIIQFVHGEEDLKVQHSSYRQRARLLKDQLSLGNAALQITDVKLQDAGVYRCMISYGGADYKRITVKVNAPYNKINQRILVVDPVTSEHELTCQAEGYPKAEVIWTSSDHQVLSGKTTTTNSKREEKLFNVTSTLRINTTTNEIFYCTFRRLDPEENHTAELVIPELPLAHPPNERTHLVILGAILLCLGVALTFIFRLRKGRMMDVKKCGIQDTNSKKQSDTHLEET

SMILES | IC50 (PD-L1) [nM] | EC50 [1] [nM] | IC50 [2] [nM] | IC50 (PD-1/PD-L1) [nM]
Cc1c(Nc2nc(C(F)(F)F)nc3cc(CN4CC[C@@H](O)C4)cnc23)cccc1-c1cccc(-c2nc3cc(CN4CCC(C(=O)O)CC4)cc(C#N)c3o2)c1C [Example 19, (R)-1-((7-cyano-2-(3′-(7-((3-hydroxypyrrolidin-1-yl)methyl)-2-(trifluoromethyl)pyrido[3,2-d]pyrimidin-4-ylamino)-2,2′-dimethylbiphenyl-3-yl)benzo[d]oxazol-5-yl)methyl)piperidine-4-carboxylic Acid] | 10 to 100 | 10 to 100 | ≤ 10 | –
Cc1c(Nc2nc(C(F)F)nc3cc(CN4CC[C@@H](O)C4)cnc23)cccc1-c1cccc(-c2nc3cc(CN4CC[C@H](C(=O)O)C4)cc(C#N)c3o2)c1C [Example 22, (S)-1-((7-cyano-2-(3′-(2-(difluoromethyl)-7-(((R)-3-hydroxypyrrolidin-1-yl)methyl)pyrido[3,2-d]pyrimidin-4-ylamino)-2,2′-dimethylbiphenyl-3-yl)benzo[d]oxazol-5-yl)methyl)pyrrolidine-3-carboxylic Acid] | 10 to 100 | 10 to 100 | – | ≤ 10
Cc1c(Nc2nc(C(F)F)nc3cc(CN4CC[C@@H](O)C4)cnc23)cccc1-c1cccc(-c2nc3cc(CN4CC[C@](C)(C(=O)O)C4)cc(C#N)c3o2)c1C [Example 23, (S)-1-((7-cyano-2-(3′-(2-(difluoromethyl)-7-(((R)-3-hydroxypyrrolidin-1-yl)methyl)pyrido[3,2-d]pyrimidin-4-ylamino)-2,2′-dimethylbiphenyl-3-yl)benzo[d]oxazol-5-yl)methyl)-3-methylpyrrolidine-3-carboxylic Acid] | 10 to 100 | ≤ 10 | – | ≤ 10
Cc1c(Nc2nc(C(F)F)nc3cc(CN4CC[C@@H](O)C4)cnc23)cccc1-c1cccc(-c2nc3cc(CN4CCC(C)(C(=O)O)CC4)cc(C#N)c3o2)c1C [Example 24, (R)-1-((7-cyano-2-(3′-(2-(difluoromethyl)-7-((3-hydroxypyrrolidin-1-yl)methyl)pyrido[3,2-d]pyrimidin-4-ylamino)-2,2′-dimethylbiphenyl-3-yl)benzo[d]oxazol-5-yl)methyl)-4-methylpiperidine-4-carboxylic Acid] | 10 to 100 | 10 to 100 | – | ≤ 10
Cc1c(Nc2nc(C(F)F)nc3cc(CN4CC[C@@H](O)C4)cnc23)cccc1-c1cccc(-c2nc3cc(CN4CCC(C(=O)N(C)C)CC4)cc(C#N)c3o2)c1C [Example 25, (R)-1-((7-cyano-2-(3′-(2-(difluoromethyl)-7-((3-hydroxypyrrolidin-1-yl)methyl)pyrido[3,2-d]pyrimidin-4-ylamino)-2,2′-dimethylbiphenyl-3-yl)benzo[d]oxazol-5-yl)methyl)-N,N-dimethylpiperidine-4-carboxamide] | 10 to 100 | 10 to 100 | – | ≤ 10
CNC(=O)C1CCN(Cc2cc(C#N)c3oc(-c4cccc(-c5cccc(Nc6nc(C(F)F)nc7cc(CN8CC[C@@H](O)C8)cnc67)c5C)c4C)nc3c2)CC1 [Example 26, (R)-1-((7-cyano-2-(3′-(2-(difluoromethyl)-7-((3-hydroxypyrrolidin-1-yl)methyl)pyrido[3,2-d]pyrimidin-4-ylamino)-2,2′-dimethylbiphenyl-3-yl)benzo[d]oxazol-5-yl)methyl)-N-methylpiperidine-4-carboxamide] | 10 to 100 | ≤ 10 | – | ≤ 10
Cc1c(Nc2nc(C(F)F)nc3cc(CN4CC[C@@H](O)C4)cnc23)cccc1-c1cccc(-c2nc3cc(CN4CCC(C(=O)NCCC(=O)O)CC4)cc(C#N)c3o2)c1C [Example 27, (R)-3-(1-((7-cyano-2-(3′-(2-(difluoromethyl)-7-((3-hydroxypyrrolidin-1-yl)methyl)pyrido[3,2-d]pyrimidin-4-ylamino)-2,2′-dimethylbiphenyl-3-yl)benzo[d]oxazol-5-yl)methyl)piperidine-4-carboxamido)propanoic Acid] | 10 to 100 | 10 to 100 | – | ≤ 10
Cc1c(Nc2nc(CO)nc3cc(CN4CC[C@@H](O)C4)cnc23)cccc1-c1cccc(-c2nc3cc(CN4CCC(C(=O)O)CC4)cc(C#N)c3o2)c1C [Example 32, (R)-1-((7-cyano-2-(3′-(2-(hydroxymethyl)-7-((3-hydroxypyrrolidin-1-yl)methyl)pyrido[3,2-d]pyrimidin-4-ylamino)-2,2′-dimethylbiphenyl-3-yl)benzo[d]oxazol-5-yl)methyl)piperidine-4-carboxylic Acid] | 10 to 100 | 10 to 100 | – | ≤ 10
Cc1c(Nc2nc(C(F)F)cc3cc(CN4CC[C@@H](O)C4)cnc23)cccc1-c1cccc(-c2nc3cc(CN4CC[C@@](C)(C(=O)O)C4)cc(C#N)c3o2)c1C [Example 34, (R)-1-((7-cyano-2-(3′-(6-(difluoromethyl)-3-(((R)-3-hydroxypyrrolidin-1-yl)methyl)-1,7-naphthyridin-8-ylamino)-2,2′-dimethylbiphenyl-3-yl)benzo[d]oxazol-5-yl)methyl)-3-methylpyrrolidine-3-carboxylic Acid] | 100 to 500 | ≤ 10 | – | ≤ 10

Source: US10669271B2, “Heterocyclic compounds as immunomodulators” (Incyte Corporation, priority 2018, dated 2020)
